Measured values: article PMC10141604, “Small-Molecule Inhibition of Androgen Receptor Dimerization as a Strategy against Prostate Cancer” (ACS Central Science, 2023)

What was measured:
[1] = tested on: Du145; assay: MTT cell viability assay, Du145; format: cell-based; settings: 72 h
Description: 3-(4,5-dimethythiazol-2-yl)-2,5-diphenyl-2-H-tetrazolium bromide (MTT) colorimetric assay was employed to investigate cell viability. Cells were seeded into 96-well plates with 2-5× 10^3 cells per well (5× 10^3 cells/well for LNCaP, 22RV1, NIH-3T3, GES-1, Chang, […]
NCI-H1299, U2OS, U87) for 1 day incubation at 37 °C. Then, the cells were treated with various concentrations of compounds (22.86 nM - 50 μM) and incubated for 72 h. Then, 10 μl MTT (5 mg/ml) was added into each well and incubated for 4 h. Afterwards, 100 μl of triplex 10% SDS-0.1% HCl-phosophate-buffered saline (PBS) solutions was added into each well and incubated for overnight. The absorbance at 570 nm was measured (Eon, Bioteck, Winooski, VT). […]

[2] = target: T1, AR (Homo sapiens, UniProt P10275, T878A); assay: AR transcriptional activity assay (LNCaP-ARR2PB-eGFP cells); format: cell-based
T1 construct: The cells of LNCaP-ARR2PB-eGFP were; endogenous in cells; host or cells: LNCaP-ARR2PB-eGFP
T1 sequence (P10275 1-920 T878A): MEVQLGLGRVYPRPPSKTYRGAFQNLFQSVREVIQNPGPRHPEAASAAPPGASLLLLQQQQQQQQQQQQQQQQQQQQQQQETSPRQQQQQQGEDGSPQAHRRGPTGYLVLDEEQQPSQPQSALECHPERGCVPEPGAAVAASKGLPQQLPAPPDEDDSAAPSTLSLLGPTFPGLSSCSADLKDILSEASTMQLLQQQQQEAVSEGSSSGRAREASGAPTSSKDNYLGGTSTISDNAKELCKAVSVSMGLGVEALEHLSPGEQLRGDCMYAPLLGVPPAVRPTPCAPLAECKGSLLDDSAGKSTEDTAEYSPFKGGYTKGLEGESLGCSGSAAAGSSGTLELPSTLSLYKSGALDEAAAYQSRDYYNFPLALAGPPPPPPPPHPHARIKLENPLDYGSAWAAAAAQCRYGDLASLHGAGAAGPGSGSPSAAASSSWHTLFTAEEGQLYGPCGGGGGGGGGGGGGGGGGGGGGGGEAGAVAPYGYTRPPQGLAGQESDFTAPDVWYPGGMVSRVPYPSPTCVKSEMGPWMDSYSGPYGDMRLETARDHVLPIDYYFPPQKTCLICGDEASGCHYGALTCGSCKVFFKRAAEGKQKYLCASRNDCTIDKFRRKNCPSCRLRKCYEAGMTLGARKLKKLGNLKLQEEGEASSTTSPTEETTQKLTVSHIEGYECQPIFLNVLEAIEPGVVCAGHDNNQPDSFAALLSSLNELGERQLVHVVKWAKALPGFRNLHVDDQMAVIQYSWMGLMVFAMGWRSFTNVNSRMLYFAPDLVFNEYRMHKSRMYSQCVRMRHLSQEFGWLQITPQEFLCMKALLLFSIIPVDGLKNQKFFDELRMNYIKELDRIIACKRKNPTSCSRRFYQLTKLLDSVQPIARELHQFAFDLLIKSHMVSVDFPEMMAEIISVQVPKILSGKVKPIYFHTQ
Description: University, Hangzhou, China), respectively. […]
AR Transcriptional Activity Assay
The AR transcriptional activities were determined using the constructed LNCaP-ARR2PB-eGFP cell as previously reported.11, 12 The cells of LNCaP-ARR2PB-eGFP were […]
by seeding into a 96 -well plate (3.5× 10^4 cells/well) for 1 day incubation at 37 °C. Then, the cells were treated with 5 nM DHT and various concentrations of compounds (10 μM […]
the fluorescence intensities were determined using a Synergy H1 microplate reader

SMILES: CC(=O)Cc1nsc(NC(=O)c2cc(-c3cccc(C(F)(F)F)c3)oc2C)n1 [Compound M17-B15]
- inhibition on the cell viability of Du145 [1]: does not show obvious inhibition
- IC50 ([2]; LNCaP-ARR2PB-eGFP cells, 5 nM DHT, 3 days): 30 ± 10 nM
- improvement in AR transcriptional inhibition compared with the original hit M17 ([2]; ratio of IC50 values): > 31 fold
